Measurements reported in patent US6602896B1, “p38MAPK inhibitor and uses thereof” (The Board of Trustees of the University of Arkansas, priority 1999, dated 2003).
“Also recorded” adds a separate entry of the source.

What was measured:
LDL receptor expression = test: Northern blotting of LDL receptor mRNA in HepG2 cells; format: cell-based, human
Method: 5×10^5 cells were plated on day 0. On day 2, cells were refed with fresh medium. On day. 4, cells were either left untreated (0) or treated for the indicated times with SB202190 (2.5 μM) in medium containing 0.5% FBS. Total RNA was isolated and subjected to Northern blotting to determine amounts of LDL receptor, squalene synthase (SS) genes, and actin mRNAs. Autoradiographs were quantitated densitometrically. LDL receptor mRNA levels were normalized to actin mRNA levels. In the bottom panel, results are expressed as the fold induction by SB 202190 as compared with uninduced cells (set at 1). Values obtained are the averages of three separate experiments, with the standard deviations shown.
HepG2 cells were grown as described in FIG. 1. On day 4, medium was changed to either 10% LPDS alone or 10% LPDS supplemented with 25-hydroxycholesterol (2 μg/ml) and cholesterol (10 μg/ml), and after 2 hours, cells were treated with indicated concentrations of SB202190 for an additional 4 hours. Levels of LDL receptor and SS mRNAs were determined by Northern analysis and densitometry as described previously. RNA levels were normalized by comparison with levels of actin. Values obtained from cells cultured in the absence of sterols and SB202190 were set at 1. Values shown are the average of two different experiments.
Total RNA was subjected to Northern blot analysis, and the filter was hybridized with a ^32P-labeled LDL receptor probe. Values shown are the averages of two different experiments. […] Values obtained from the control cells grown in the absence of SB202190 or PD98059 were arbitrarily set at 1.
HepG2 cells were grown as described in FIG. 1. On day 4, cells cultured for 1 h in 0.5% FBS containing different amounts of cycloheximide (1 μg/ml, 2 μg/ml, and 5 μg/ml) were then incubated with SB202190 (2.5 μM) for an additional 4 h. LDL receptor and actin mRNA levels were analyzed by Northern blotting of total RNA. Values obtained from cells with no additions were arbitrarily set at 1. […] Results shown are representative of one experiment.
In FIG. 8A, HepG2 cells were pretreated for 30 minutes with the indicated concentration of the above inhibitors and then treated with […] SB202190 for an additional 4 hours. Total RNA was subjected to Northern blotting for measurement of LDL receptor mRNA levels.
Human hepatoma cell line HepG2 and its derivative HepG2-ΔRaf-1:ER cell line that stably expresses the ΔRaf-1:ER chimera were maintained as monolayer cultures in a humidified 5% CO2 atmosphere at 37° C. in Eagle's minimum essential medium (EMEM) (Bio Whittaker, Md.) supplemented with 10% fetal bovine serum (FBS) (Life Technologies Inc.), 2 mM L-glutamine, 20 units/ml penicillin and 20 μg/ml streptomycin sulphate.
Total RNA was isolated using TRIzol, and Northern blotting was done essentially as described earlier (43, 44). Briefly, 20 μg total cellular RNA was fractionated on 1% formaldehyde agarose gel and transferred to Zeta Probe membrane by capillary blotting. RNA blots were hybridized with LDL receptor and squalene synthase specific single-stranded M13 probes labeled with [α-^32P ]dCTP. Hybridized filters were washed and exposed to Kodak X-ray film. The relative intensities of specific bands were determined densitometrically within the linear range of the film on a model 300A laser densitometer (Molecular Dyanamics, Calif.) with Image Quant software. LDL receptor mRNA was normalized to squalene synthase (SS) (included in this study) or to α-actin (data not shown) mRNA level, and data for each point were plotted as the percentage of LDL receptor mRNA as compared to controls. […]

p46/54^JNK = test: Immunoblot of phospho-p46/54JNK in HepG2 cells; format: cell-based, human; details: SB202190 2.5 μM
Method: 2×10^5 cells were grown and treated as described in FIG. 1. After the indicated times, equal amounts of cell lysates were blotted with anti-phospho-p42/44^MAPK antibody, phosphorylation-independent p42/44^MAPK antibody, anti-phospho p46/54^JNK antibody, anti-phospho-MEK-1/2, or phosphorylation-independent MKP-1. […]
(§1) Proteins were fractionated by SDS-PAGE with an 10% acrylamide separation gel, and the separated proteins were transferred to nitrocellulose, and processed as described previously (43, 44). […] After further washing in Tris/NaCl/Tween-20, membranes were incubated for 1 h with horseradish peroxidase-linked anti-IgG secondary antibody (Bio-Rad, diluted 1:5000), and immunoreactive proteins were detected by ECL as described by the supplier. Quantitative analyses of protein levels were performed by densitometric scanning of the autoradiograms, and are representative of 3 or more independent experiments.
HepG2 cells were incubated with SB202190, and the activity of p42/44^MAPK and p46/54^JNK was determined by immunoblot analysis with antibodies that recognized the activated phosphorylated forms of these kinases in cell extracts obtained at different times.

MEK-1/2 = test: Immunoblot of phospho-MEK-1/2 in HepG2 cells; format: cell-based, human; details: SB202190 2.5 μM
Method: 2×10^5 cells were grown and treated as described in FIG. 1. After the indicated times, equal amounts of cell lysates were blotted with anti-phospho-p42/44^MAPK antibody, phosphorylation-independent p42/44^MAPK antibody, anti-phospho p46/54^JNK antibody, anti-phospho-MEK-1/2, or phosphorylation-independent MKP-1.
HepG2 cells were cultured in the absence or presence of 1 μM staurosporine or 5 μM PD98059 for 30 min. SB202190 (2.5 μM) was then added to the cells for 4 h, cell lysate was subjected to immunoblotting to measure the phosphorylation levels of p42/44^MAPK and MEK-1/2. […]
as §1

[1] = tested on: p38^MAPK α- and β-isoforms; details: cited from earlier work
[2] = tested on: p38^MAPK γ- and δ-isoforms; details: cited from earlier work

Q: With Oc1ccc(-c2nc(-c3ccc(F)cc3)c(-c3ccncc3)[nH]2)cc1 [SB202190, 4-(4-Fluorophenyl)-2-(4-hydroxyphenyl)-5-(4-pyridyl) 1H-imidazole] as the compound, how does the “LDL receptor expression in the presence of sterols” value (LDL receptor expression; HepG2, 10% LPDS with 25-hydroxycholesterol (2 μg/ml) and cholesterol (10 μg/ml), SB202190 4 hours) read?
A: slight increase in the suppressed levels of LDL receptor

Q: What about the “most effective concentration for LDL receptor induction” value (LDL receptor expression; HepG2 cells) of the same compound?
A: 2.5 µM

Q: What about the “time after which plateau of LDL receptor expression was reached” value (LDL receptor expression; HepG2 cells, SB202190 2.5 μM) of the same compound?
A: 8 h

Q: And the “time at which a significant increase in LDL receptor expression was apparent” value (LDL receptor expression; HepG2 cells, SB202190 2.5 μM)?
A: 4 h

Q: What about the “induction of LDL receptor expression” value (LDL receptor expression; HepG2 cells, SB202190 alone) of the same compound?
A: 6-8 fold

Q: And the “induction of LDL receptor expression (Northern blotting)” value (LDL receptor expression; HepG2 cells, inhibitor alone, 0.5% FBS)?
A: induces LDL receptor expression in a time-dependent manner

Q: What about the “effect on activity or levels of p46/54JNK” value (p46/54^JNK) of the same compound?
A: little or no effect

Q: And the “kinetics of MEK-1/2 phosphorylation” value (MEK-1/2)?
A: paralleled the appearance of p42/44^MAPK

Q: And the “inhibition of p38MAPK α- and β-isoforms” value [1]?
A: selectively inhibit both p38^MAPK α- and β-isoforms; also recorded: inhibited

Q: What about the “inhibition of p38MAPK γ- and δ-isoforms” value [2] of the same compound?
A: insensitive

Q: And the “effect on homologues p38MAPK γ (SAPK3) and SAPK4” value ([2]; even at higher concentrations (100 μM))?
A: without effect
